ChEMBL document CHEMBL1201862, “PubChem BioAssay data set” (2004)
The source made the active and inactive calls.

How the values were obtained:
[1] = viability of uninfected HEp-2 cells – cell-based, HTS, cytotoxicity control for RSV inhibitor project, dose response (AID 2410); type: functional; conditions: human respiratory syncytial virus
[2] = molecular target: Luciferin 4-monooxygenase (Photinus pyralis, UniProt P08659); assay: inhibition of purified Photinus pyralis luciferase – biochemical, luminescence, dose response (AID 1891)
Luciferin 4-monooxygenase, sequence (P08659 whole entry): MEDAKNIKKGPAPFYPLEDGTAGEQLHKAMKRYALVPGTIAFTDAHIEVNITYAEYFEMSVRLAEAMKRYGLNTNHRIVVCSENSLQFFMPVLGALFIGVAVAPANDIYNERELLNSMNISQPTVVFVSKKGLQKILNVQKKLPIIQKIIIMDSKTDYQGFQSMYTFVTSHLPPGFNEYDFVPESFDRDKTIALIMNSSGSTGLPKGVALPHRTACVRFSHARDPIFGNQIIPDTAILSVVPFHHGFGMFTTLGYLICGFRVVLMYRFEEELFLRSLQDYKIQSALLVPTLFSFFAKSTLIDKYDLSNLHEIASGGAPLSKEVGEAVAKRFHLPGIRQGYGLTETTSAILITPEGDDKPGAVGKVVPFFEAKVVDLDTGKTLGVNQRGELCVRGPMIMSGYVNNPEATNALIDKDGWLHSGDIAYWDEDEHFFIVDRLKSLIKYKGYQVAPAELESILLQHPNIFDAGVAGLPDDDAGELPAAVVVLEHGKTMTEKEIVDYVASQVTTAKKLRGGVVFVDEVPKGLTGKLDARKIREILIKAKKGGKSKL

[3] = Luminescence Cell-Based Dose Retest to Confirm Inhibitors of Cancer Stem Cells. [Related pubchem assays (depositor defined):AID2717, AID2721]; type: functional; conditions: Homo sapiens
[4] = Luminescence Cell-Based Dose Confirmation HTS to Identify Inhibitors of Platelet Dense Granule Release. [Related pubchem assays: 1663 (Primary HTS), 1678 (Summary of Project)]; type: functional
[5] = molecular target: T1, Polyadenylate-binding protein 1 (Homo sapiens, UniProt P11940); assay: MLLE binding blockers, Cy5 peptide tracer – biochemical, fluorescence polarization, Cy5-PAM2 peptide, secondary, miRNA deadenylation inhibitor project, dose response (AID 602260); type: functional; conditions: read-out: IC50_Mean
T1 sequence (P11940 whole entry, the tested form may be a part): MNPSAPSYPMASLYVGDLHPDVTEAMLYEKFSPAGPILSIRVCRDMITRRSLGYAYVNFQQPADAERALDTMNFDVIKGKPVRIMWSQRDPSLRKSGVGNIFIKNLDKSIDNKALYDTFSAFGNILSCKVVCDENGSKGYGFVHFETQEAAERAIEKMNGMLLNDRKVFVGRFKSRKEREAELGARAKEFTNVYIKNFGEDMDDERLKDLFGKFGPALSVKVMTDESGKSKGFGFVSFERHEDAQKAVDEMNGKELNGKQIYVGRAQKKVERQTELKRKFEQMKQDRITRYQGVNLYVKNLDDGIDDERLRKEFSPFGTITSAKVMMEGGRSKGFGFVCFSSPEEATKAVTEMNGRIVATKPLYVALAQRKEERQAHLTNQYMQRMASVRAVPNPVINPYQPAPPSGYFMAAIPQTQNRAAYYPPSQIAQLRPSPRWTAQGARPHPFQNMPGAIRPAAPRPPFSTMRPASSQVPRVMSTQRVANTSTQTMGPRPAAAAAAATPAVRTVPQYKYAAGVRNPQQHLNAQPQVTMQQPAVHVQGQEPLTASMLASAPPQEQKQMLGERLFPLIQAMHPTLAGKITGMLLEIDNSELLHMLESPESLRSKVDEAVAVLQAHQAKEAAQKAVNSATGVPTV

[6] = molecular target: T1, Polyadenylate-binding protein 1; assay: MLLE domain peptide-binding blockers, IC50 – biochemical, fluorescence polarization, FITC-PAM2 peptide, dose response (AID 602259); type: functional; conditions: read-out: IC50_Mean
[7] = viability of HCT116 lacking mutant beta-catenin – cell-based, human colon tumor, dose response (AID 1045); type: functional;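 also: HCT116 colon tumor cells with beta catenin knocked out; cells exposed to compound for 60 hours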
[8] = viability of PTEN-deleted HCT116 cells – cell-based, HCT116 PTEN knockout, dose response (AID 1047); type: functional;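 also: HCT116 colon tumor cells with PTEN knocked out; cells exposed to compound for 60 hours before readout; potency for loss of cell viability measured by luminescence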
Nonstructural protein 1 = Nonstructural protein 1 (Influenza A virus, UniProt Q194T2); type: functional, Influenza A virus (A/California/07/2009(H1N1))
Nonstructural protein 1, sequence (Q194T2 whole entry): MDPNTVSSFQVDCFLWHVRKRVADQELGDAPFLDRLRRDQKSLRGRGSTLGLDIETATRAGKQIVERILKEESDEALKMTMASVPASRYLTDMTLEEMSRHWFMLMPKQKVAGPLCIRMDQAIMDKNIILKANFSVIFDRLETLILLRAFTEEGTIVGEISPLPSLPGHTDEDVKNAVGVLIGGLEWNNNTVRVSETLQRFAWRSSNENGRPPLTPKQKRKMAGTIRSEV

[9] = molecular target: T2, Ubiquitin-conjugating enzyme E2 N (Homo sapiens, UniProt P61088); type: functional;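 also: Dose-response confirmation in a TR-FRET assay detecting UBC13-driven polyubiquitin chain formation, inhibition measured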
T2 sequence (P61088 whole entry): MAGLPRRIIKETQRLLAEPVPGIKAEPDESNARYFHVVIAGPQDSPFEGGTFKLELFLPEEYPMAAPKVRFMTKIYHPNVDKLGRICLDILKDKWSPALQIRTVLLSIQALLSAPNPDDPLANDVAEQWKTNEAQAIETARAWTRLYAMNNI

[10] = loss of viability in HepG2 cells – cell-based, CellTiter-Glo, cherry-picked, cytotoxicity control for Shn3 inhibitor project, dose response (AID 624134); type: functional
INS1 = assay: INS-1E survival protection against cytokine death – cell-based, luminescence, retest, dose response (AID 449756); type: functional; conditions: Rattus norvegicus;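 also: cell death triggered by IL-1 beta plus TNF-alpha plus IFN-gamma mixture; protective hits raise ATP signal compared with cytokine alone wells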
[11] = reduction of Shn3 3'UTR-driven luciferase in osteoblasts – cell-based, Clone20 osteoblasts, firefly luciferase, cherry-picked, dose response (AID 624132); type: functional;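 also: firefly luciferase luminescence from reporter carrying the Shn3 3'UTR in osteoblasts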
[12] = non-specific 3'UTR reporter inhibition in Clone20-Shn3RL – cell-based, Renilla luciferase, cherry-picked, counter-screen for Shn3 inhibitor project, dose response (AID 624133); type: functional
Large T antigen = Large T antigen (Simian virus 40, UniProt P03070); type: functional, Betapolyomavirus macacae;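 also: Confirmatory-stage PubChem screen for compounds that inhibit SV40 T antigen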
Large T antigen, sequence (P03070 whole entry): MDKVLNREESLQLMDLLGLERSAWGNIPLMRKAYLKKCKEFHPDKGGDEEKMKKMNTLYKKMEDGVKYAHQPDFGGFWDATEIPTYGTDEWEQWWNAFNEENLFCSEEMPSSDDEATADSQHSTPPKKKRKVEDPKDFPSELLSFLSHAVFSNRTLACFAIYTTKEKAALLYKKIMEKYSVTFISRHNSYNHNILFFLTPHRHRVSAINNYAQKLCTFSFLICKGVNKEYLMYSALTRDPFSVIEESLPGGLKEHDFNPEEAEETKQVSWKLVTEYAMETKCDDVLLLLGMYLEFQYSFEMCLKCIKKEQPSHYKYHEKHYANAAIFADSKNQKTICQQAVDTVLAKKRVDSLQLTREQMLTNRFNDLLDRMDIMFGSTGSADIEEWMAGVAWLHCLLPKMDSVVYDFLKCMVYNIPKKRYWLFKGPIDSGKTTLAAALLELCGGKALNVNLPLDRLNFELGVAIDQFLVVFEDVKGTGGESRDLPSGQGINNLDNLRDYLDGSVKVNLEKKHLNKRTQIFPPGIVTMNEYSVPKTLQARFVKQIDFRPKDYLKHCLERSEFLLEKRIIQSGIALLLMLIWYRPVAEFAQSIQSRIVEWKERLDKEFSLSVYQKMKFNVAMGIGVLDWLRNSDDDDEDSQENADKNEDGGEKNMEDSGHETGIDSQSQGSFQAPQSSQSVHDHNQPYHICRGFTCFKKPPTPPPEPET

[13] = molecular target: T3, Heat shock factor protein 1 (Mus musculus, UniProt P38532); assay: enhancement of HSF1-driven luciferase signal – cell-based, NIH3T3, luminescence, dose retest, confirmation (AID 435004); type: functional;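 also: stress induced by proteasome inhibitor MG132 added 30 min after compound; luciferase reporter driven by HSF1 response element in NIH3T3 cells; actives raise luminescence as potentiators of the MG132 stress response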
T3 sequence (P38532 whole entry): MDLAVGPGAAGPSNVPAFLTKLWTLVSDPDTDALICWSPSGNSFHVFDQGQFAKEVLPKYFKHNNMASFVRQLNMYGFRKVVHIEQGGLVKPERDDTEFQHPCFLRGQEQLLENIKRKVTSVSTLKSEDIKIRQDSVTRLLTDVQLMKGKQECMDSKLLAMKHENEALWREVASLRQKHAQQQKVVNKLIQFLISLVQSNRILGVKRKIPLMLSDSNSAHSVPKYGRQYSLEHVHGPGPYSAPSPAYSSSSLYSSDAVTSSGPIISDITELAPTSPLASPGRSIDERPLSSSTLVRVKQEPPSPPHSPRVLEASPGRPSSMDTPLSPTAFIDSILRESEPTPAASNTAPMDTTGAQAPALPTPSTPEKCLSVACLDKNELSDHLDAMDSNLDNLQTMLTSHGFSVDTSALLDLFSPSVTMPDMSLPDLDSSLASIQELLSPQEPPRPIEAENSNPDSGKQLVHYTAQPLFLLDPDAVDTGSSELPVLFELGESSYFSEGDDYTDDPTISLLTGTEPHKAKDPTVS

[14] = NIH3T3 cell viability loss – ATP luminescence, mouse fibroblasts, counter-screen, dose response (AID 2010); type: functional, cell-based;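 also: cells exposed to compound for about 90 hours before reading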
[15] = Trypanosoma cruzi growth suppression in host cells – NIH3T3 host cells, beta-gal luminescence, confirmation (AID 2044); type: functional, cell-based;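 also: intracellular parasites grown in NIH/3T3 mouse fibroblasts as host cells; luminescent beta-galactosidase reporter signal from transgenic T. cruzi replicating inside host cells; inhibitors lower the luminescence signal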
[16] = Luminescence Cell-Based Dose Response HTS to Identify Activators of Luciferase Translation or Activity in H4 […] Cells. [Related pubchem assays: 1829 (Project Summary), 1814 (Primary HTS)]; type: functional
Cytochrome P450 2D6 = Cytochrome P450 2D6 (Homo sapiens, UniProt P10635);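 also: CYP2D6 member of a cytochrome P450 panel assay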
Cytochrome P450 2D6, sequence (P10635 whole entry): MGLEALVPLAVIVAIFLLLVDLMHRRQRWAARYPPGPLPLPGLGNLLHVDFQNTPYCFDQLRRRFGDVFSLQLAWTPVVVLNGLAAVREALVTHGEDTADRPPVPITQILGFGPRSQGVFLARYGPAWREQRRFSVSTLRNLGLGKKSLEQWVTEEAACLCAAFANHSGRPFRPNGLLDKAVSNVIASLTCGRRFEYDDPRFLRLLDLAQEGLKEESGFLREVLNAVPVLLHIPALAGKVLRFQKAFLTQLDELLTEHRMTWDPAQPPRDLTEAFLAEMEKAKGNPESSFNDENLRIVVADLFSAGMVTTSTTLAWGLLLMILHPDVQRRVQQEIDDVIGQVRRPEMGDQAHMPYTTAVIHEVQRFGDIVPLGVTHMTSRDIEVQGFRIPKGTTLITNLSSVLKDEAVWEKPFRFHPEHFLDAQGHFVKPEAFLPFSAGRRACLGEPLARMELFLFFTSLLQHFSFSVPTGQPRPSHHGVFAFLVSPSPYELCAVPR

H4 = assay: Luminescence Cell-Based Dose Response HTS to Identify Activators of 5'UTR Stem-Loop Driven Prion Protein mRNA Translation in H4 Neuroglioblastoma Cells. [Related pubchem assays: 1829 (Project Summary), 1814 (Primary HTS)]; type: functional; conditions: Homo sapiens
[17] = Luminescence Cell-Based Dose Confirmation HTS to Identify Activators of 5'UTR Stem-Loop Driven Alpha-Synuclein mRNA Translation in H4 Neuroglioblastoma Cells. [Related pubchem assays: 1829 (Project Summary), 1814 (Primary HTS)]; type: functional
Cytochrome P450 2C9 = Cytochrome P450 2C9 (Homo sapiens, UniProt P11712)
Cytochrome P450 2C9, sequence (P11712 whole entry, the tested form may be a part): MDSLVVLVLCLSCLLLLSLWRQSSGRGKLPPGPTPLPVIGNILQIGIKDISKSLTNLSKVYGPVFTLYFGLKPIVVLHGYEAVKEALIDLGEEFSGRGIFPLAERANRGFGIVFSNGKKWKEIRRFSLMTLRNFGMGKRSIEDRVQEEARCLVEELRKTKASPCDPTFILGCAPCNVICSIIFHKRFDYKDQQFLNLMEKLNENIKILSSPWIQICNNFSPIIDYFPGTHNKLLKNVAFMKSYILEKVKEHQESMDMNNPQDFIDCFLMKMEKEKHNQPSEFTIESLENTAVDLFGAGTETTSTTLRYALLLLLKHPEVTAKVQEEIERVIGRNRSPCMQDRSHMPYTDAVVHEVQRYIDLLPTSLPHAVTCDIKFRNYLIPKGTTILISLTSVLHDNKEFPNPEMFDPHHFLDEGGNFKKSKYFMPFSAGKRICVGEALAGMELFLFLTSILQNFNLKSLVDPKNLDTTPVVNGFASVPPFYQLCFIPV

[18] = blockers of HIV-1 envelope-mediated cell-cell fusion – cherry-pick, dose response (AID 652057); type: functional, cell-based
H9c2 = assay: cells; type: functional, cell-based; conditions: Rattus norvegicus, H9c2, Myocardium;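 also: confirmatory concentration-response retest of ultra-high-throughput screening hits for modulation of myocardial damage; cell death induced by hydrogen peroxide oxidative stress; compound pretreatment for 60 min then peroxide exposure for 2 h; potency is for protecting the cells against peroxide damage rather than for killing them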

Oc1ccccc1N1CCN(c2ncnc3sc(-c4ccccc4)cc23)CC1
CC50 [1]: 14.2 µM (active)
EC50 [2]: > 112 µM (not active)
AC50 [3]: 3.87 µM (active)
EC50 [4]: > 112 µM (not active)

COc1cc(NC(S)=Nc2ccc(OC(F)F)cc2)cc(OC)c1
IC50 [5]: > 66 µM (inactive)
IC50 [6]: > 66 µM (inactive)

O=C(O)CSc1c2ccccc2cc2ccccc12
IC50 [5]: > 66 µM (inactive)
IC50 [6]: > 66 µM (inactive)

O=C(CNCCC1=CCCCC1)Nc1ccc(N2CCCCCC2)cc1
EC50 [7]: 12.3 µM (active)
EC50 [8]: 15.3 µM (active)
IC50 (Nonstructural protein 1): 13.8 µM (active)

NC(=O)c1ccsc1NC(=O)CSc1nc2ccccc2c(=O)n1CCCO
IC50 [5]: > 66 µM (inactive)
IC50 [6]: > 66 µM (inactive)

O=C(O)C1C2C=CC(C2)C1C(=O)NCc1ccco1 (configuration not stated)
EC50 [2]: > 112 µM (not active)
EC50 [4]: > 112 µM (not active)

COC(=O)c1sccc1N=C(S)Nc1cc(C)cc(C)c1
IC50 [5]: > 66 µM (inactive)
IC50 [6]: > 66 µM (inactive)

CCOC(=O)c1ccc(N2C(=O)CC(Sc3ncccn3)C2=O)cc1 (configuration not stated)
IC50 [5]: > 66 µM (inactive)
IC50 [6]: > 66 µM (inactive)

CCOc1cccc2sc(N(CCCN(C)C)C(=O)c3ccc(S(=O)(=O)N(CC)Cc4ccccc4)cc3)nc12
CC50 [1]: 27.7 µM (active)
IC50 [9]: > 20 µM (inactive)

O=C(NCCSc1c[nH]c2ccccc12)c1c(F)cccc1F
EC50 [2]: > 112 µM (not active)
EC50 [4]: > 112 µM (not active)

CC(=O)c1ccc(NC(=O)c2cc[nH]n2)cc1
EC50 [2]: 31.4 µM (active)
EC50 [4]: 7.07 µM (active)

COn1c(C)c(C(C)=O)c2c3nonc3ccc21
EC50 [2]: > 112 µM (not active)
EC50 [4]: > 112 µM (not active)

O=C(CSc1ccc(-c2ccncc2)nn1)c1ccccc1
IC50 [5]: > 66 µM (inactive)
IC50 [6]: > 66 µM (inactive)

Cc1ccccc1-c1nc(CS(=O)(=O)CC(=O)N2CCc3ccccc32)c(C)o1
EC50 [2]: > 112 µM (not active)
EC50 [4]: > 112 µM (not active)

N#Cc1c(O)nc(S)nc1-c1cccc(Cl)c1
IC50 [5]: > 66 µM (inactive)
IC50 [6]: > 66 µM (inactive)

CCCc1ccc(Oc2cc(N3CCOCC3)nc(-c3ccccc3)n2)cc1
EC50 [2]: > 112 µM (not active)
EC50 [4]: > 112 µM (not active)

CCn1c(Cc2cccn2C)nnc1SCC(=O)c1ccc(C)cc1
EC50 [2]: > 112 µM (not active)
EC50 [4]: > 112 µM (not active)

CCSc1nc(N2CCCCC2)c2c(c1C#N)CCCC2
IC50 [9]: > 20 µM (inactive)

COc1ccc(/C=C(/NC(=O)c2ccco2)C(=O)N2CCCCCC2)cc1OC
EC50 [2]: > 112 µM (not active)
EC50 [4]: > 112 µM (not active)

Cc1ncc(CN2CCC(N3CCC(C(=O)N4CCCC4)CC3)CC2)s1
EC50 [2]: > 112 µM (not active)
EC50 [4]: > 112 µM (not active)

NCCCC[C@@H]1NC(=O)c2cc([N+](=O)[O-])cc(I)c2SC[C@@H](C(N)=O)NC(=O)[C@H](Cc2ccc(O)cc2)NC1=O
IC50 [9]: > 20 µM (inactive)

COc1ccc(C(=O)CN2CCN(S(=O)(=O)c3cccc([N+](=O)[O-])c3)CC2)cc1OC
IC50 [5]: > 66 µM (inactive)
IC50 [6]: > 66 µM (inactive)

Cc1c(N2C(=O)S/C(=C3\C(=O)Nc4ccccc43)C2=O)c(=O)n(-c2ccccc2)n1C
IC50 [5]: > 66 µM (inactive)
IC50 [6]: > 66 µM (inactive)

Cc1ccc(C(=O)Nc2nc(-c3ccccn3)cs2)cc1S(=O)(=O)N1CCOCC1
AC50 [10]: > 70 µM (inactive)
AC50 (INS1): 1.36 µM (active)
AC50 [11]: 0.838 µM (active)
AC50 [12]: 0.976 µM (active)
IC50 (Nonstructural protein 1): 7.81 µM (active)

Cn1c(C(=O)NCCCN2CCN(c3cccc(Cl)c3)CC2)cc2c(=O)n(C)c3ccccc3c21
IC50 [9]: > 20 µM (inactive)

O=C(CSC1=NS(=O)(=O)c2ccccc21)Nc1ccccc1
IC50 [9]: > 20 µM (inactive)
IC50 (Large T antigen): 12.2 µM (active)

COc1ccc(-c2csc(CCn3nc(C)cc3C)n2)cc1OC
EC50 [2]: > 112 µM (not active)
EC50 [4]: > 112 µM (not active)

COc1ccc(CCNCc2cc(C)n(-c3ccc(OC)cc3)c2C)cc1
EC50 [13]: > 260 µM (inactive)
EC50 [14]: > 60 µM (not active)
EC50 [15]: 1.85 µM (active)
IC50 (Nonstructural protein 1): 44.7 µM (active)

COc1ccc(N=NC2C(=O)N(c3ccccc3)N=C2C)cc1 (configuration not stated)
IC50 (Nonstructural protein 1): 27.1 µM (active)

CCC(=O)NCCc1nc2ccccc2n1Cc1ccc(C)cc1
EC50 [2]: > 112 µM (not active)
EC50 [4]: > 112 µM (not active)

CCN(CC)CCNC(=O)c1ccc(NC(=O)/C=C/c2ccc3ccccc3n2)cc1
IC50 (Nonstructural protein 1): > 100 µM (active)

COC(=O)C1=C(NC(=O)c2ccc(C)c(C)c2)CCS1
EC50 [16]: 13.3 µM (active)
AC50 (Cytochrome P450 2D6): 31.6 µM (inconclusive)
EC50 (H4): 19 µM (active)
IC50 [5]: > 66 µM (inactive)
EC50 [17]: > 120 µM (not active)
AC50 (Cytochrome P450 2C9): 14.1 µM (inconclusive)
IC50 [6]: > 66 µM (inactive)

CCC(C)(C)NC(=O)CN(C(=O)c1snc(C(N)=O)c1N)c1ccc2nc(C)sc2c1
IC50 [9]: > 20 µM (inactive)

COC(=O)C1=C(C)N(Cc2ccccc2)C(NCCc2c[nH]c3ccccc23)=N[C@H]1c1cccc(F)c1
IC50 [9]: > 20 µM (inactive)
AC50 [3]: 6.45 µM (active)

CC1(C(=O)NCc2ccc3c(c2)OCO3)CCN1Cc1csc2ccccc12 (configuration not stated)
AC50 [18]: 43 µM (active)

CCOc1ccccc1C(=O)N/N=C/c1cccc2cccnc12
IC50 (H9c2): 12.4 µM (active)
IC50 (Nonstructural protein 1): 32.3 µM (active)

CC=CCn1c(SCc2ccccc2)nc2c1c(=O)[nH]c(=O)n2C
IC50 [5]: > 66 µM (inactive)
IC50 [6]: > 66 µM (inactive)

C[C@H]1CN([C@@H](C)CO)C(=O)Cc2cc(N(C)C)ccc2O[C@H]1CN(C)Cc1ccc(Cl)c(Cl)c1
AC50 [18]: 40.2 µM (active)

Cc1c(NC(=S)N/N=C\c2ccccc2O)c(=O)n(-c2ccccc2)n1C
IC50 (Nonstructural protein 1): 6.13 µM (active)
